Laboratory results taken from paper PMC8279414, “Discovery and Synthesis of a Pyrimidine-Based Aurora Kinase Inhibitor to Reduce Levels of MYC Oncoproteins” (Journal of Medicinal Chemistry, 2021).

What was measured:
[1] = target: T1, human Aurora A (amino acids 123–401) (Homo sapiens, UniProt O14965); assay: In vitro inhibition of Aurora A kinase activity (Kinase-Glo Plus Luminescent Kinase assay, ATP consumption); type: biochemical; conditions: mean of 2–3 independent determinations ± SD; >100 = inhibition < 50% at 100 nM
T1 construct: N-terminal truncated human Aurora A (amino acids 123–401); GST; made in house; host or cells: Sf9 insect cells
T1 sequence (O14965 123-401): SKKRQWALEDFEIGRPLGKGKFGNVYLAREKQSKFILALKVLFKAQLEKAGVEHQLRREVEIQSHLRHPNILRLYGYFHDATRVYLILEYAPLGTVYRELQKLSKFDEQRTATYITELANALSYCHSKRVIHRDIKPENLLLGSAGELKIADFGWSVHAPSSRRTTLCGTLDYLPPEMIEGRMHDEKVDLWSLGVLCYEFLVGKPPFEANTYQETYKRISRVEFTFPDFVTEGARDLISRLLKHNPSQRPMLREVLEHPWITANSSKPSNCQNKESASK
Experimental: The inhibitory potency of the newly synthesized small molecules against Aurora A was first measured in ATP consumption assays using purified Aurora A protein.
The efficacy of the compounds as inhibitors of Aurora A kinase was assessed in vitro using the Kinase-Glo Plus Luminescent Kinase assay (Promega, USA), as described previously.[45] […] The resulting mixture was incubated at 25 °C for 20 min. A 70 μL aliquot of the mixture was transferred to a black microtiter plate.

cMYC in NCI-H82 = assay: Western blot analysis of cMYC protein level in NCI-H82 cells; type: cell-based; conditions: 24 h; for NCI-H82 cMYC, relative protein level: 1.0 μM of compound, mean ± SD, triplicate; for effect on cMYC protein level in NCI-H82: various concentrations
Experimental: (§1) Cancer cells were treated with each of the compounds at different compound concentrations. […] Each lysate was separated by sodium dodecyl sulfate polyacrylamide gel electrophoresis (SDS-PAGE), transferred to polyvinylidene fluoride (PVDF, Millipore, USA) membrane, and blotted with antibodies. […] After the blotting (0.2% casein, 1% BSA, or 5% nonfat milk), membranes were washed with blotting buffer (0.2% casein in 1× PBS or 1× TBST), and corresponding alkaline phosphatase (AP)- or horseradish peroxidase (HRP)-conjugated secondary antibodies (Sigma-Aldrich) were added. The blots were developed by chemiluminescence (PerkinElmer, USA).

MYCN in SK-N-BE(2) = assay: Western blot analysis of MYCN protein level in SK-N-BE(2) cells; type: cell-based; conditions: 1.0 μM of compound, 24 h, mean ± SD, triplicate
Experimental: as §1

Compound: CCN1CCN(c2cc(Nc3cc(C)[nH]n3)nc(N[C@H]3CCN(C(=O)c4ccc(Cl)cc4Cl)C3)n2)CC1 [Compound 8, (S)-(2,4-Dichlorophenyl) (3-((4-(4-ethylpiperazin-1-yl)-6-((5-methyl-1H-pyrazol-3-yl)amino)pyrimidin-2-yl)amino)pyrrolidin-1-yl)methanone]
- IC50 [1]: 48.2 ± 9.7 nM
- NCI-H82 cMYC, relative protein level (cMYC in NCI-H82): 1.175 ± 0.124
- SK-N-BE(2) MYCN, relative protein level (MYCN in SK-N-BE(2)): 1.000 ± 0.035

Compound: CCN1CCN(c2cc(Nc3cc(C)[nH]n3)nc(N[C@H]3CCN(C(=O)c4ccc(Cl)c(F)c4)C3)n2)CC1 [Compound 10, (S)-(4-Chloro-3-fluorophenyl) (3-((4-(4-ethylpiperazin-1-yl)-6-((5-methyl-1H-pyrazol-3-yl)amino)pyrimidin-2-yl)amino)pyrrolidin-1-yl)methanone]
- IC50 [1]: 52.2 ± 8.1 nM
- NCI-H82 cMYC, relative protein level (cMYC in NCI-H82): 0.715 ± 0.048
- SK-N-BE(2) MYCN, relative protein level (MYCN in SK-N-BE(2)): 0.578 ± 0.135

Compound: CCN1CCN(c2cc(Nc3cc(C)[nH]n3)nc(N[C@H]3CCN(C(=O)c4ccc(Cl)cc4C)C3)n2)CC1 [Compound 9, (S)-(4-Chloro-2-methylphenyl) (3-((4-(4-ethylpiperazin-1-yl)-6-((5-methyl-1H-pyrazol-3-yl)amino)pyrimidin-2-yl)amino)pyrrolidin-1-yl)methanone]
- IC50 [1]: 64.9 ± 8.5 nM
- NCI-H82 cMYC, relative protein level (cMYC in NCI-H82): 0.984 ± 0.052
- SK-N-BE(2) MYCN, relative protein level (MYCN in SK-N-BE(2)): 1.057 ± 0.312

Compound: CCN(CCCOc1ccc2c(Nc3cc(CC(=O)Nc4cccc(F)c4)[nH]n3)ncnc2c1)CCOP(=O)(O)O [AZD1152, reference compound]
- effect on cMYC protein level in NCI-H82 (cMYC in NCI-H82): limited effect

Compound: CCN1CCN(c2cc(Nc3cc(C)[nH]n3)nc(N[C@H]3CCN(C(=O)c4ccc(Cl)c(C)c4)C3)n2)CC1 [Compound 11, (S)-(4-Chloro-3-methylphenyl) (3-((4-(4-ethylpiperazin-1-yl)-6-((5-methyl-1H-pyrazol-3-yl)amino)pyrimidin-2-yl)amino)pyrrolidin-1-yl)methanone]
- IC50 [1]: 58.1 ± 7.4 nM
- NCI-H82 cMYC, relative protein level (cMYC in NCI-H82): 1.050 ± 0.060
- SK-N-BE(2) MYCN, relative protein level (MYCN in SK-N-BE(2)): 1.030 ± 0.256

Compound: CCN1CCN(c2cc(Nc3cc(C)[nH]n3)nc(N[C@H]3CCN(C(=O)c4ccc(Cl)cc4)C3)n2)CC1 [Compound 7, (S)-(4-Chlorophenyl) (3-((4-(4-ethylpiperazin-1-yl)-6-((5-methyl-1H-pyrazol-3-yl)amino)pyrimidin-2-yl)amino)pyrrolidin-1-yl)methanone]
- IC50 [1]: 42.9 ± 2.6 nM
- NCI-H82 cMYC, relative protein level (cMYC in NCI-H82): 0.887 ± 0.050
- SK-N-BE(2) MYCN, relative protein level (MYCN in SK-N-BE(2)): 0.889 ± 0.067

Compound: CCN1CCN(C(=O)Cc2ccc(Nc3ncc(F)c(Nc4ccc(C(=O)Nc5ccccc5Cl)cc4)n3)cc2)CC1 [Aurora A inhibitor I, reference compound]
- effect on cMYC protein level in NCI-H82 (cMYC in NCI-H82): limited effect

Compound: CCN1CCN(c2cc(Nc3cc(C)[nH]n3)nc(N[C@H]3CCN(C(=O)c4cccc(Cl)c4F)C3)n2)CC1 [Compound 1, (S)-(3-Chloro-2-fluorophenyl) (3-((4-(4-ethylpiperazin-1-yl)-6-((5-methyl-1H-pyrazol-3-yl)amino)pyrimidin-2-yl)amino)pyrrolidin-1-yl)methanone]
- IC50 [1]: 24.1 ± 7.9 nM
- NCI-H82 cMYC, relative protein level (cMYC in NCI-H82): 0.781 ± 0.015

Compound: CCN1CCN(c2cc(Nc3cc(C)[nH]n3)nc(N[C@H]3CCN(C(=O)c4ccc(Cl)c(F)c4F)C3)n2)CC1 [Compound 17, (S)-(4-Chloro-2,3-difluorophenyl) (3-((4-(4-ethylpiperazin-1-yl)-6-((5-methyl-1H-pyrazol-3-yl)amino)pyrimidin-2-yl)amino)pyrrolidin-1-yl)methanone]
- IC50 [1]: 64.9 ± 13.7 nM
- NCI-H82 cMYC, relative protein level (cMYC in NCI-H82): 0.744 ± 0.124
- SK-N-BE(2) MYCN, relative protein level (MYCN in SK-N-BE(2)): 0.541 ± 0.068

Compound: CCN1CCN(c2cc(Nc3cc(C)[nH]n3)nc(N[C@H]3CCN(C(=O)c4cc(Cl)ccc4F)C3)n2)CC1 [Compound 12, (S)-(5-Chloro-2-fluorophenyl) (3-((4-(4-ethylpiperazin-1-yl)-6-((5-methyl-1H-pyrazol-3-yl)amino)pyrimidin-2-yl)amino)pyrrolidin-1-yl)methanone]
- IC50 [1]: 45.8 ± 1.4 nM
- NCI-H82 cMYC, relative protein level (cMYC in NCI-H82): 0.559 ± 0.119
- SK-N-BE(2) MYCN, relative protein level (MYCN in SK-N-BE(2)): 0.734 ± 0.104
